The structures appear in SMILES notation. pEC50: −log10 of the molar value. Where “and” joins values, the source holds several entries; their conditions need not be identical. Equal entries are not always repeated.

Assay type in all cases: cell-based
The test system of series [1] is U937 cells. Nature of the series: Cytotoxicity, live cells by flow cytometry, U937 cells (PMA−/PMA+). Particulars: human, 48 h. The protocol:
(§1) H9, Jurkat and undifferentiated U937 and THP-1 (PMA^−) cells (6 × 10^5 cells/mL) were treated with increasing concentrations of nucleoside analogues (0–200 μM; except CFB, 0–1.6 μM) and incubated at 37 °C in 5% CO2 for 48 h. Medium was then replaced and cells were further incubated for 72 h. Non-dividing U937 and THP-1 (PMA^+) cells (6 × 10^5 cells/mL) were differentiated by addition of 100 nM phorbol-12-myristate-13-acetate (PMA^+) for 48 h and then treated with increasing concentrations of nucleoside analogues as described above. The percentage of live cells was determined by flow cytometry using Live/Dead fixable blue-fluorescent dyes (Invitrogen) and a Fortessa X20 analyser (BD Biosciences). Data were analysed using the FlowJo software suite.
(§2) The cytotoxic concentration of nucleoside analogue that inhibits cell viability by 50% (CC50) and the effective concentration of nucleoside analogue that inhibits infection of cells by 50% (EC50) were calculated for each independent experiment by non-linear regression using GraphPad Prism v6.00 for Windows (GraphPad Software, San Diego, CA). Non-ambiguous values were subjected to a replicate test to calculate confidence intervals of 95% (95% CI). CC50 and EC50 values were determined for at least two independent experiments for each nucleoside analogue and a selectivity index (SI) also calculated, (SI = CC50/EC50). EC50 values for each replicate were used to perform an unpaired two-tailed t-test to determine significant differences between U937 cells expressing SAMHD1 wt or HD206-7AA mutant and THP-1 cells expressing Vpx or untransduced cells. P values of <0.005 were considered statistically significant.

Assay in series [2]: as above
Particulars: human. As for the experimental part: as §1, §2

The subject of series [3] is HIV-1-GFP. Nature of the series: microbe, parasite or virus in culture. The protocol:
Cells were then infected with HIV-1-GFP by spinoculation at 800 × g for 90 min in the presence of 1 μg/mL polybrene, and further incubated at 37 °C in 5% CO2 for 72 h. […] Cells were then infected with HIV-1-GFP by spinoculation at 800 × g for 90 min in the presence of 1 μg/mL polybrene, and further incubated at 37 °C in 5% CO2 for 72 h. Non-dividing U937 and THP-1 (PMA^+) cells (6 × 10^5 cells/mL) were differentiated by addition of 100 nM PMA (PMA^+) for 48 h and treated with increasing concentrations of nucleoside analogues as described above. Cells were then infected with HIV-1-GFP in the presence of 1 μg/mL polybrene and further incubated at 37 °C in 5% CO2 for 72 h. The percentage of GFP^+cells was determined by one-colour flow cytometry using a Fortessa X20 analyser (BD Biosciences) and the data analysed using the FlowJo software suite.
Non-ambiguous values were subjected to a replicate test to calculate confidence intervals of 95% (95% CI). CC50 and EC50 values were determined for at least two independent experiments for each nucleoside analogue and a selectivity index (SI) also calculated, (SI = CC50/EC50). EC50 values for each replicate were used to perform an unpaired two-tailed t-test to determine significant differences between U937 cells expressing SAMHD1 wt or HD206-7AA mutant and THP-1 cells expressing Vpx or untransduced cells. P values of <0.005 were considered statistically significant.

Series [4] is described as follows: Cytotoxicity, live cells by flow cytometry, H9 cells. The conditions noted are these: human. As for the experimental part:
as §1, §2
In general terms: In flow cytometry, cells or beads pass a laser one at a time.

The test system of series [5] is HIV-1-GFP. The series can be described thus: Anti-HIV-1 activity in U937 cells transduced with wt SAMHD1 or HD206-7AA mutant. As for the experimental part: Antiviral assays were further performed in monocytoid cells transduced with YFP-expressing VLPs containing WT SAMHD1, HD206-7AA or Vpx. Briefly, U937 cells (6 × 10^5 cells/mL) were transduced with WT SAMHD1-YFP or HD206-7AA-YFP VLPs by spinoculation at 800 × g for 90 min in the presence of 1 μg/mL polybrene. Similarly, THP-1 cells (6 × 10^5 cells/mL) were transduced with Vpx-YFP VLPs by spinoculation at 800 × g for 90 min in the presence of 1 μg/mL polybrene. Cells were incubated at 37 °C in 5% CO2 and after 72 h, PMA^+ cells (6 × 10^5 cells/mL) were treated with 100 nM PMA and PMA^− cells (7.5 × 10^4 cells/mL) were left untreated. Cells were then incubated at 37 °C in 5% CO2 for 48 h. Nucleoside analogues were added at increasing concentrations (0–200 μM; except CFB, 0–1.6 μM) and cells were further incubated for 48 h. PMA^− cells were then infected with HIV-1-GFP by spinoculation at 800 × g for 90 min in the presence of 1 μg/mL polybrene, PMA^+ cells were infected with HIV-1-GFP in the presence of 1 μg/mL polybrene only. Cells were incubated for 72 h at 37 °C in 5% CO2 and then analysed by two-colour flow cytometry using a Fortessa X20 analyser (BD Biosciences). Data were analysed using the FlowJo software suite.
as §2

Series [6] can be described thus: Cytotoxicity, live cells by flow cytometry, Jurkat cells. Particulars: human. The protocol:
as §1, §2

Series [7] concerns THP-1 cells. Nature of the series: Cytotoxicity, live cells by flow cytometry, THP-1 cells (PMA−/PMA+). The conditions noted are these: human, 48 h. The protocol: as §1, §2
Assay in series [8]: as above
The conditions noted are these: human. The protocol:
as §1, §2

The mark [9] stands for this setting: Human immunodeficiency virus 1, H9, read-out: EC50 anti-HIV-1, H9 cells.
The mark [10] stands for this setting: Human immunodeficiency virus 1, Jurkat, read-out: EC50 anti-HIV-1, Jurkat cells.
Where [11] appears, read: Human immunodeficiency virus 1, U-937, read-out: EC50 [95% CI], U937 PMA+, HD206/7AA+ population.
Setting [12] is: Human immunodeficiency virus 1, U-937, read-out: EC50 [95% CI], U937 PMA+, SAMHD1+ population.
The mark [13] stands for this setting: Human immunodeficiency virus 1, U-937, read-out: EC50 [95% CI], U937 PMA−, HD206/7AA+ population.
The mark [14] stands for this setting: Human immunodeficiency virus 1, U-937, read-out: EC50 [95% CI], U937 PMA−, SAMHD1+ population.
Setting [15] is: U937 PMA−, HD206/7AA+ population.

Usually CC50 stands for the concentration at which the toxic effect on the cells reaches its halfway point. As to `Nc1nc2c(ncn2COCCO)c(=O)[nH]1` [ACV, Acycloguanosine], the CC50 in series [1] and in series [7] was over 200 µM in each case. Further, the CC50 at 48 h in series [2], in series [4], in series [6] and in series [8] was over 200 µM each time. The pEC50 in series [3] (setting [9]) is under 3.70; in series [3] (setting [10]), under 3.70; in series [5] (setting [11]), 4.29; in series [5] (setting [12]), 6.19; in series [5] (setting [13]), under 3.70; in series [5] (setting [14]), under 3.70. For the same compound, the “Fold (EC50 HD206/7AA vs SAMHD1)” value in series [5] (U937 PMA+) was determined as 78 fold. Also, the “EC50 [95% CI]” value was “no anti-HIV-1 activity” in series [5] (setting [15]) and “no anti-HIV-1 activity” in series [5] (U937 PMA−, SAMHD1+ population).
Take `Nc1nc(O)c2ncn(COC(CO)CO)c2n1` [GCV, 2′-Nor-2′-deoxyguanosine]: the CC50 in series [1] and in series [7] was over 200 µM in each case. Besides, the CC50 at 48 h in series [2], in series [4], in series [6] and in series [8] was over 200 µM in each case. The pEC50 in series [3] (setting [9]) was under 3.70; in series [3] (setting [10]), under 3.70; in series [5] (setting [11]) it was under 3.70; in series [5] (setting [12]), 6.06; in series [5] (setting [13]), under 3.70; in series [5] (setting [14]) it was under 3.70. The “EC50 [95% CI]” value was “no anti-HIV-1 activity” in series [5] (setting [15]) and “no anti-HIV-1 activity” in series [5] (U937 PMA−, SAMHD1+ population).
As to `Cc1ccnc2c1NC(=O)c1cccnc1N2C1CC1` [NVP, Nevirapine], the CC50 at 48 h is over 200 µM in series [2] (PMA-differentiated, non-dividing U937 cells (PMA+), U937 PMA+, read-out: CC50); over 200 µM in series [2] (undifferentiated U937 cells (PMA−), U937 PMA−, read-out: CC50); over 200 µM in series [4] (H9 cells, read-out: CC50); over 200 µM in series [6] (Jurkat cells, read-out: CC50); over 200 µM in series [8] (PMA-differentiated, non-dividing THP-1 cells (PMA+), THP-1 PMA+, read-out: CC50); over 200 µM in series [8] (undifferentiated THP-1 cells (PMA−), THP-1 PMA−, read-out: CC50). Besides, the “EC50 anti-HIV-1” value in series [3] (H9 cells) and in series [3] (Jurkat cells) was “nanomolar concentrations” each time. In addition, the “SI, selectivity index CC50/EC50” value in series [3] (H9 cells) was over 1266. Further, the pEC50 in series [3] (setting [9]) is 6.80; in series [3] (setting [10]), 6.31; in series [5] (setting [11]), 6.84; in series [5] (setting [12]), 7.01; in series [5] (setting [13]) it was 6.91; in series [5] (setting [14]), 6.95. The “Fold (EC50 HD206/7AA vs SAMHD1)” value in series [5] (U937 PMA+) and in series [5] (U937 PMA−) was 1 fold in each case.
On to `Cc1nnc(C(=O)NC(C)(C)c2nc(C(=O)NCc3ccc(F)cc3)c(O)c(=O)n2C)o1` [RAL, Raltegravir], for which the CC50 at 48 h in series [2] (U937 PMA+, read-out: CC50) was over 200 µM; in series [2] (U937 PMA−, read-out: CC50), over 200 µM; in series [4] (H9 cells, read-out: CC50), over 200 µM; in series [6] (Jurkat cells, read-out: CC50) it was over 200 µM; in series [8] (THP-1 PMA+, read-out: CC50) it was over 200 µM; in series [8] (THP-1 PMA−, read-out: CC50) it was over 200 µM. For the same compound, the “EC50 anti-HIV-1” value in series [3] (H9 cells) and in series [3] (Jurkat cells) was “nanomolar concentrations” in each case. Also, the “SI, selectivity index CC50/EC50” value in series [3] (H9 cells) is over 100000. The pEC50 was 8.70 in series [3] (setting [9]); 8.40 in series [3] (setting [10]); 7.12 in series [5] (setting [11]); 7.15 in series [5] (setting [12]); 7.92 in series [5] (setting [13]); 7.96 in series [5] (setting [14]). Moreover, the “Fold (EC50 HD206/7AA vs SAMHD1)” value in series [5] (U937 PMA+) and in series [5] (U937 PMA−) was 1 fold throughout.
As for `Cc1cn([C@H]2C=C[C@@H](CO)O2)c(=O)[nH]c1=O` [d4T, 2′,3′-didehydro-2′,3′-dideoxythymidine], the CC50 in series [1] and in series [7] was over 200 µM throughout. Also, the CC50 at 48 h in series [2], in series [4], in series [6] and in series [8] was over 200 µM throughout. Also, the “SI, selectivity index CC50/EC50” value in series [3] (H9 cells) was > 36 and > 30; in series [3] (Jurkat cells), over 30. Further, the pEC50 in series [3] (setting [9]) is over 5.00; in series [3] (setting [10]) it was over 5.00; in series [3] (read-out: EC50 anti-HIV-1, H9 cells) it was 5.25; in series [3] (read-out: EC50 anti-HIV-1, Jurkat cells), 5.18; in series [5] (setting [11]) it was 5.24; in series [5] (setting [12]), 6.28. In addition, the pEC50 is 5.57 in series [5] (setting [13]) and 6.10 in series [5] (setting [14]). The “Fold (EC50 HD206/7AA vs SAMHD1)” value in series [5] (U937 PMA+) amounted to 11 fold; in series [5] (U937 PMA−), 3 fold.

The record behind these values is paper PMC5318888, “SAMHD1 enhances nucleoside-analogue efficacy against HIV-1 in myeloid cells” (Scientific Reports, 2017).
